IC50 and outcome data for 58 compounds are collected here from PubChem BioAssay AID549 (SRMLSC, 2006).

Active and inactive are the calls of the source.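 Rule for the calls: active = clearly stronger inhibition of phosphomevalonate kinase than of the coupling enzymes alone in a parallel counterscreen; inactive = the rest.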

Molecular target in the first assay: not listed separately
Briefly: phosphomevalonate kinase inhibition IC50 – biochemical, mevalonate pathway, coupling enzyme counter-screen, dose response (AID 549). Conditions: PMK enzyme, PK/LDH coupled NADH absorbance 340 nm; measured here: coupling enzymes counter-screen (hexokinase). (In general: The purpose of a counterscreen is to sort out artefacts and off-target activity.)
The term IC50 denotes the concentration that inhibits the measured activity by half. Turning to `CCOC(=O)N1C(=O)c2cc(OC)ccc2S1(=O)=O`, the IC50 is 18.6 µM.
On the same count and under the same terms, for `CCOC(=O)c1cc2c(=O)n3cccc(C)c3nc2n(CCCOC)c1=NC(=O)c1cccnc1` the value was 13.6 µM; for `CCOC(=O)C1=C(C)NC(=O)NC1c1c(C)nn(-c2ccccc2)c1Cl` (stereo not drawn), 3.54 µM; for `COc1cccc(OC)c1-c1nn2c(-c3cc(-c4ccccc4)n[nH]3)nnc2s1`, 42.7 µM.
With `O=c1c2ccccc2[se]n1-c1ccccc1`, the IC50 was determined as 73.1 µM.

The target in another assay is phosphomevalonate kinase (Streptococcus pneumoniae D39). Described as above. The following applies: PMK enzyme, PK/LDH coupled NADH absorbance 340 nm.
As to `CCOC(=O)N1C(=O)c2cc(OC)ccc2S1(=O)=O`, the IC50 result is “inactive”.
Still for that read-out and setting: the value for `CCOC(=O)c1cc2c(=O)n3cccc(C)c3nc2n(CCCOC)c1=NC(=O)c1cccnc1` was “inactive”.
Same read-out and setting: for `CCOC(=O)C1=C(C)NC(=O)NC1c1c(C)nn(-c2ccccc2)c1Cl` (stereo not drawn) the value was “inactive”; for `COc1cccc(OC)c1-c1nn2c(-c3cc(-c4ccccc4)n[nH]3)nnc2s1`, “inactive”; for `O=c1c2ccccc2[se]n1-c1ccccc1`, “inactive”.
Regarding `CCCOc1ccc(-c2nnn(CC(=O)Nc3cccc(C(=O)OC)c3)n2)cc1`, the result was inactive.
Same read-out and setting: the value for `CN(C)c1ccc(CNCCC2(O)CCOC(C)(C)C2)cc1` (stereo not drawn) was “inactive”; that for `CC1(C)CC(=O)C(C(C2=C(O)CC(C)(C)CC2=O)c2cccc(O)c2)C(=O)C1` (stereo not drawn) was “inactive”; that for `Cc1ccc(-n2nc3c(c2NC(=O)c2c(-c4ccccc4Cl)noc2C)CS(=O)(=O)C3)c(C)c1` was “inactive”.
On to `O=c1cc(O)c2c(=O)[nH]c(=O)n(-c3ccccc3)c2[nH]1`, for which the result was inactive.
For the compound `O=C(CNC(=O)c1cccs1)NCCN1CCN(c2ccccc2F)CC1`, the outcome was inactive.
Still for that read-out and setting: the value for `CCOc1ccccc1C(=O)NCC(=O)OCC(=O)c1ccc2c(c1)OCCO2` was “inactive”; that for `CCc1ccc(OCc2nnc(SCC(=O)NCc3ccco3)o2)cc1` was “inactive”; that for `COc1ccc(C(=O)Nc2ccccc2C(=O)NC(C(=O)NCc2ccco2)C(C)C)cc1` (stereo not drawn) was “inactive”.
The same measure, in the same setting: for `Cn1c(SCC(=O)N2CCOCC2)nnc1-c1ccc(NC(=O)c2ccccc2F)cc1` the value was “inactive”.
As for `CCOC(=O)CSc1n[nH]c(-c2cccnc2)n1`, the result was inactive.
Still for that read-out and setting: the value for `CC(C)(C)NS(=O)(=O)c1ccc(NS(=O)(=O)c2ccc(F)cc2)cc1` was “inactive”.
Same read-out and setting: the value for `CCCn1cnc2c(cnn2-c2ccc(F)cc2)c1=O` was “inactive”; that for `CS(=O)(=O)N1CCCC(C(=O)NCc2ccccn2)C1` (stereo not drawn) was “inactive”; that for `OCCNCC1(O)C2CC3CC(C2)CC1C3` (stereo not drawn) was “inactive”.
Same read-out and setting: for `O=C(c1cccnc1)N1CCc2ccccc2C1` the value was “inactive”; for `CCN(CC)CCSc1nc(O)c(C(C)C)c(=O)[nH]1`, “inactive”.
On to `COc1ccc(C2C(=O)N(C3CCCCC3)CC(=O)N2CCc2ccccc2)cc1OC` (stereo not drawn), for which the outcome was inactive.
On the same count and under the same terms, for `CC(=O)c1ccc(Oc2ncnc3sccc23)c(CN2CCOCC2)c1` the value was “inactive”; for `O=C(NCc1cccs1)C1CCCN(c2nc3ccccc3o2)C1` (stereo not drawn), “inactive”.
Still for that read-out and setting: for `CC12C=CC3(CN(Cc4ccccc4)C(=O)C3C1C(=O)NC1CC1)O2` (stereo not drawn) the value was “inactive”.
The same measure, in the same setting: for `CCOCCCNC(=O)C1CCN(S(=O)(=O)N(CC(C)C)CC(C)C)CC1` the value was “inactive”.
For the compound `CCN(CC)C(=O)NC1CC2CCCC(C1)N2Cc1ccccc1` (stereo not drawn), the result was inactive.
Still for that read-out and setting: for `Cc1nonc1NC(=O)CSc1ccc(-c2ccccc2)nn1` the value was “inactive”.
On to `Cc1nc2ccccc2n2c(O)c(CC(=O)O)cc12`, for which the result was inactive.
On the same count and under the same terms, for `Cc1occc1-c1nnc(SCC(=O)N2CCOCC2)n1Cc1ccco1` the value was “inactive”; for `O=C(NCCCNC(=O)c1ccccn1)c1ccccn1`, “inactive”; for `CCOC(=O)N1CCC(NC(=O)CSc2cc(=O)n(C)c3ccccc23)CC1`, “inactive”.
Regarding `CC(C)n1nnnc1SCC(=O)Nc1ccccc1N1CCOCC1`, the result was inactive.
Take `CCOC(=O)c1[nH]nc(C(=O)c2ccc(Br)cc2)c1O`: the outcome was inactive.
Same read-out and setting: for `Cc1cc2c(C(F)(F)F)cc(=O)oc2c2c1NCCC2` the value was “inactive”; for `NC(=O)CCN(Cc1ccccc1)S(=O)(=O)c1ccccc1`, “inactive”; for `CS(=O)(=O)N1CCN(C(=O)CCC2CCCC2)CC1`, “inactive”.
Regarding `CS(=O)(=O)N1CCCC(C(=O)N2CCOCC2)C1` (stereo not drawn), the result was inactive.
The same measure, in the same setting: for `CC(C)OC(=O)c1cccnc1SCc1cc(=O)n2ccccc2n1` the value was “inactive”; for `Cc1n[nH]c(C)c1N1C(=O)c2cccc3c(N4CCCCCC4)ccc(c23)C1=O`, “inactive”.
As to `CCc1nnc(NC(=O)c2cccs2)s1`, the result was inactive.
Regarding `Cc1c2cnn(CC(=O)N3CCC4(CC3)OCCO4)c(=O)c2c(C)n1Cc1ccc(F)cc1`, the outcome was inactive.
With `CCN1CCN(C(c2ccc(F)cc2)c2nnnn2Cc2cccs2)CC1` (stereo not drawn), the outcome was inactive.
For `COc1ccc(NC(=O)c2ccco2)cc1NC(=O)c1ccc(C)cc1`, the outcome was inactive.
The same measure, in the same setting: the value for `c1ccc(NC(=NCc2ccco2)c2ccccc2)cc1` was “inactive”; that for `O=C(c1ccc(CS(=O)(=O)Cc2ccc(Cl)cc2)o1)N1CCCC1` was “inactive”; that for `CCOC(=O)N1CCN(C(=O)C2CCN(S(=O)(=O)N3CCCC3)CC2)CC1` was “inactive”.
Regarding `CCOC(=O)c1c(C)n(C)c2ccc(OC)c(NS(=O)(=O)c3ccc(Cl)s3)c12`, the result was inactive.
As for `Cc1cc(NCCCN2CCOCC2)n2nc(C)c(-c3ccc(F)cc3)c2n1`, the result was inactive.
On the same count and under the same terms, the value for `O=C(Nc1cccc2ccccc12)c1cnccn1` was “inactive”.
For the compound `c1ccc(CCn2nnnc2C(c2cccs2)N2CCOCC2)cc1` (stereo not drawn), the outcome was inactive.
Regarding `O=C(Cc1coc(-c2ccc(F)cc2)n1)N1CCOCC1`, the outcome was inactive.
Still for that read-out and setting: the value for `COc1cc(-c2nnc(COc3ccc4ccccc4c3)o2)cc(OC)c1OC` was “inactive”; that for `COCCn1c(C)cc2c(c1=O)C(c1ccccc1F)C(C#N)=C(N)O2` (stereo not drawn) was “inactive”.
The same measure, in the same setting: the value for `CC(=O)NC1N=C(C)N(c2ccccc2)C1=O` (stereo not drawn) was “inactive”; that for `COc1cc2cc(CN(CCCO)S(=O)(=O)c3ccccc3Cl)c(=O)[nH]c2cc1OC` was “inactive”.
On the same count and under the same terms, for `CCOc1cc(C#N)c(NC(=O)c2cccnc2)cc1OCC` the value was “inactive”.
